# Measurements as given in patent US5780433A (priority 1996, dated 1998).
# “And” between values parts separate entries of the source, which are not always exact repeats. Equal values may be shown once. “Also recorded” adds a separate entry of the source.
# Experiments:
# [1] = system: nicotine-stimulated [3H]-dopamine release from rat striatal synaptosomes; format: cell-based
# [2] = system: potassium-stimulated dopamine release; format: cell-based, rat
# [3] = system: nicotine-stimulated norepinephrine release, hippocampal synaptosomes; format: cell-based, rat
# [4] = molecular target: α3β2 nAChRs expressed in Xenopus oocytes (Rattus norvegicus, UniProt P04757+P12390); details: read-out: IC50, block of α3β2 nAChRs; cited from earlier work
# [5] = system: other nAChR subunit combinations (α7, α4β2, α2β2, α3β4, α1β1δγ, α4β4); details: cited from earlier work
# [6] = system: nicotine-stimulated norepinephrine release, hippocampal synaptosomes; details: cited from earlier work
# [7] = system: norepinephrine release, hippocampal slice preparations; details: cited from earlier work
# [8] = system: nicotine-stimulated [3H]-dopamine release from rat striatal synaptosomes; details: read-out: EC50, increase of [3H]-dopamine release; cited from earlier work
# α3β2 nAChRs expressed in Xenopus oocytes, sequence (P04757 26-499 limits assumed): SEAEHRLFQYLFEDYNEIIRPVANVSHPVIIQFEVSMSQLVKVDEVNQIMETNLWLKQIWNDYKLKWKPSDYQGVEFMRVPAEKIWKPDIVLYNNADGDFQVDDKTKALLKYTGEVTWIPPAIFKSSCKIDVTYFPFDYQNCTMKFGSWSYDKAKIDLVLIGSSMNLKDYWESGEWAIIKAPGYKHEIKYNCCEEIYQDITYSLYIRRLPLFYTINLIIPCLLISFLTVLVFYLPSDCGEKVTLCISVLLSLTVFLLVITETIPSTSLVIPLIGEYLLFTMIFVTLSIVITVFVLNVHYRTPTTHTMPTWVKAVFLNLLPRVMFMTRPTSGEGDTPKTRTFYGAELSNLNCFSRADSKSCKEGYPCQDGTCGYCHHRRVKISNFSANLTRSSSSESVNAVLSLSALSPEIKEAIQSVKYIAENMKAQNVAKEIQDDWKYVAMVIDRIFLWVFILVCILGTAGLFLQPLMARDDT
# α3β2 nAChRs expressed in Xenopus oocytes, sequence (P12390 25-500 limits assumed): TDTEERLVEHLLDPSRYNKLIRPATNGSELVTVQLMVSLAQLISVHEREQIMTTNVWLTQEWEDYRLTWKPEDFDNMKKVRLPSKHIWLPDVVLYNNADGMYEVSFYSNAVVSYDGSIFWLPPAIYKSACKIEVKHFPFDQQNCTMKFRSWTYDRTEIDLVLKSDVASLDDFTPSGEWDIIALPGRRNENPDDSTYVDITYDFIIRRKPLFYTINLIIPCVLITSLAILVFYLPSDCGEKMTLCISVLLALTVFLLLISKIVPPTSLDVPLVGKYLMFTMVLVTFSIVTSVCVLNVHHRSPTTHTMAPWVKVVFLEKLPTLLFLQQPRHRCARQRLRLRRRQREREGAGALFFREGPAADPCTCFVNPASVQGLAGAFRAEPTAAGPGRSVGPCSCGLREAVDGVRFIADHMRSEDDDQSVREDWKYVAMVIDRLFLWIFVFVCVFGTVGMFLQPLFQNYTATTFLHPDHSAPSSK
molecule,measurement,setting,value
α-conotoxin MII,block of nicotine-evoked [3H]-dopamine release,[1],significantly blocked
same,block of nicotine-stimulated [3H]-dopamine release,[1],33% and 34% and 44% and 50%
same,block of nicotine-stimulated [3H]-dopamine release (words),[1],nonsignificant trend toward block
same,block of nicotine-stimulated dopamine release,[1],blocks a fraction; also recorded: blocks a part but not all
same,effect on potassium-stimulated dopamine release,[2],no effect
same,block of nicotine-stimulated norepinephrine release,[3],significant block
same,block of nicotine-stimulated synaptosomal norepinephrine release,[3],do not block
same,IC50,[4],0.5 nM
same,affinities for other nAChR subunit combinations relative to α3β2,[5],two to four orders-of-magnitude higher
same,discrimination between the α3/β2 and α3/β4 interface,[5],four orders-of-magnitude
"CN1CCCC1c1cccnc1.O=C(O)C(O)C(O)C(=O)O (single isomer, unassigned; (-)) [nicotine, (-)Nicotine hydrogen tartrate]",EC50,[6],6500 nM
same,norepinephrine release over baseline,[7],~ 700%
same,EC50,[8],160 nM
"CNC1(C)C2CCC(C2)C1(C)C (centres unmarked) [mecamylamine, reference compound]",block of nicotine-stimulated dopamine release,[1],fully blocked
NC1=N[C@H](O)[C@H]2[C@H]3O[C@]4(O)O[C@@H]([C@@H](O)[C@@]2(N1)[C@@H]4O)[C@]3(O)CO [tetrodotoxin],effect on nicotine-stimulated synaptosomal release of norepinephrine,[6],not affected
same,block of nicotine-stimulated norepinephrine release from hippocampal slices,[7],majority
α-conotoxin ImI [reference compound],block of nicotine-stimulated dopamine release,[1],do not block; also recorded: no effect
